Values quoted from earlier work as cited in publication PMC8127065 (Journal of controlled release : official journal of the …, 2021).

Q: Which water solubility does the source give for C=CC[C@@H]1/C=C(\C)C[C@H](C)C[C@H](OC)[C@H]2O[C@@](O)(C(=O)C(=O)N3CCCC[C@H]3C(=O)O[C@H](/C(C)=C/[C@@H]3CC[C@@H](O)[C@H](OC)C3)[C@H](C)[C@@H](O)CC1=O)[C@H](C)C[C@@H]2OC [Tacrolimus] here?
A: The water solubility was 1 to 2 µg/mL.
